# Patent US9320276B2, “N-hetarylmethyl pyrazolylcarboxamides” (BAYER INTELLECTUAL PROPERTY GMBH, priority 2010, dated 2016)
# System: Pyrenophora teres
# Experiment: in vivo preventive test on Pyrenophora teres (barley)
# Conditions: 500 ppm of active ingredient, evaluated 7-9 days after inoculation
# Description: Solvent: 49 parts by weight of N,N-dimethylformamide Emulsifier: 1 part by weight of alkylaryl polyglycol ether To produce a suitable preparation of active compound, 1 part by weight of active compound is mixed with the stated amounts of solvent and emulsifier, and the concentrate is diluted with water to the desired concentration. To test for preventive activity, young plants are sprayed with the preparation of active compound at the stated rate of application. One day after this treatment, the plants are inoculated with an aqueous spore suspension of Pyrenophora teres. The plants remain for 48 hours in an incubation cabinet at 22° C. and a relative atmospheric humidity of 100%. Then the plants are placed in a greenhouse at a temperature of approximately 20° C. and a relative atmospheric humidity of approximately 80%. The test is evaluated 7-9 days after the inoculation. 0% means an efficacy which corresponds to that of the untreated control while an efficacy of 100% means that no disease is observed.
row,SMILES,Efficacy [%]
1,Cn1nc(C(F)F)c(C(=O)N(Cc2cccnc2)C2CCCCCC2)c1Cl [Example 15],75
2,Cc1ccoc1CN(C)C(=O)c1c(C(F)F)nn(C)c1Cl [Example 21],80
3,Cc1occc1C1(NC(=O)c2c(C(F)F)nn(C)c2Cl)CCCC1 [Example 23],100
4,Cn1nc(C(F)F)c(C(=O)N(Cc2cccs2)C2CC2)c1Cl [Example 31],100
5,Cc1cc(C(C)N(C(=O)c2c(C(F)F)nn(C)c2F)C2CC2)c(C)o1 (stereo not shown) [Example 35],100

# System: not listed separately
# Experiment: logP by HPLC on reversed-phase column (EEC Directive 79/831 Annex V.A8)
# Type: physicochemical
# Conditions: HPLC on reversed-phase column (C 18), 40° C., 0.1% aqueous formic acid and acetonitrile, linear gradient 10% to 90% acetonitrile
# Description: In table 1, the logP values were determined in accordance with EEC Directive 79/831 Annex V.A8 by HPLC (High Performance Liquid Chromatography) on a reversed-phase column (C 18), using the method described below: Temperature: 40° C.; Mobile phases: 0.1% aqueous formic acid and acetonitrile; linear gradient from 10% acetonitrile to 90% acetonitrile. Calibration was carried out using unbranched alkan-2-ones (comprising 3 to 16 carbon atoms) with known logP values (determination of the logP values by the retention times using linear interpolation between two successive alkanones). lambda-max-values were determined using UV-spectra from 200 nm to 400 nm and the peak values of the chromatographic signals.
row,SMILES,logP
1,CN(Cc1ccco1)C(=O)c1c(C(F)F)nn(C)c1F [Example 1],1.87
2,CC(C1CC1)N(Cc1ccco1)C(=O)c1c(C(F)F)nn(C)c1Cl (stereo not shown) [Example 2],2.98
3,CC(C1CC1)N(Cc1ccco1)C(=O)c1c(C(F)F)nn(C)c1F (stereo not shown) [Example 3],2.82
4,Cn1nc(C(F)F)c(C(=O)N(Cc2ccco2)C2CC2)c1Cl [Example 4],2.45
5,CN(Cc1ccco1)C(=O)c1c(C(F)F)nn(C)c1Cl [Example 6],2.02
6,Cn1nc(C(F)F)c(C(=O)N(Cc2ccco2)C2CCCCC2)c1Cl [Example 7],3.35
7,Cn1nc(C(F)F)c(C(=O)N(Cc2ccco2)C2CCCCC2)c1F [Example 8],3.21
8,Cn1nc(C(F)F)c(C(=O)NCc2ccco2)c1Cl [Example 9],1.86
9,Cn1nc(C(F)F)c(C(=O)NCc2ccco2)c1F [Example 10],1.66
10,Cn1nc(C(F)F)c(C(=O)NC2(c3ccco3)CCCC2)c1Cl [Example 11],2.86
11,Cn1nc(C(F)F)c(C(=O)NC2(c3ccco3)CCCC2)c1F [Example 12],2.70
12,Cn1nc(C(F)F)c(C(=O)N(Cc2cccnc2)CC(F)(F)F)c1Cl [Example 13],1.37
13,Cn1nc(C(F)F)c(C(=O)N(Cc2cccnc2)CC(F)(F)F)c1F [Example 14],1.20
14,Cn1nc(C(F)F)c(C(=O)N(Cc2cccnc2)C2CCCCCC2)c1Cl [Example 15],1.76
15,Cn1nc(C(F)F)c(C(=O)N(Cc2cccnc2)C2CCCCCC2)c1F [Example 16],1.66
16,Cn1nc(C(F)F)c(C(=O)NC2(c3cccnc3)CCCC2)c1Cl [Example 17],0.96
17,Cn1nc(C(F)F)c(C(=O)NC2(c3cccnc3)CCCC2)c1F [Example 18],0.84
18,CC(C)C(c1cncnc1)N(C)C(=O)c1c(C(F)F)nn(C)c1Cl (stereo not shown) [Example 19],1.76
19,CC(C)C(c1cncnc1)N(C)C(=O)c1c(C(F)F)nn(C)c1F (stereo not shown) [Example 20],1.65
20,Cc1ccoc1CN(C)C(=O)c1c(C(F)F)nn(C)c1Cl [Example 21],2.32
21,Cc1ccoc1CN(C)C(=O)c1c(C(F)F)nn(C)c1F [Example 22],2.18
22,Cc1occc1C1(NC(=O)c2c(C(F)F)nn(C)c2Cl)CCCC1 [Example 23],3.11
23,Cc1occc1C1(NC(=O)c2c(C(F)F)nn(C)c2F)CCCC1 [Example 24],2.92
24,Cn1ccc(C2(NC(=O)c3c(C(F)F)nn(C)c3Cl)CCCC2)n1 [Example 25],1.93
25,Cn1ccc(C2(NC(=O)c3c(C(F)F)nn(C)c3F)CCCC2)n1 [Example 26],2.25
26,CCN(Cc1nonc1C)C(=O)c1c(C(F)F)nn(C)c1Cl [Example 27],2.20
27,CCCN(Cc1cccs1)C(=O)c1c(C(F)F)nn(C)c1Cl [Example 29],2.90

row,SMILES,logP
1,CCCN(Cc1cccs1)C(=O)c1c(C(F)F)nn(C)c1F [Example 30],2.77
2,Cn1nc(C(F)F)c(C(=O)N(Cc2cccs2)C2CC2)c1Cl [Example 31],2.73
3,Cn1nc(C(F)F)c(C(=O)NC2(c3cccs3)CCCC2)c1Cl [Example 33],3.13
4,Cc1cc(C(C)N(C(=O)c2c(C(F)F)nn(C)c2F)C2CC2)c(C)o1 (stereo not shown) [Example 35],3.21
5,Cc1cc(C(C)N(C(=O)c2c(C(F)F)nn(C)c2Cl)C2CC2)c(C)o1 (stereo not shown) [Example 36],3.37
6,Cc1ccsc1CN(C(=O)c1c(C(F)F)nn(C)c1F)C1CCCC1 [Example 38],3.46
7,Cc1ccsc1CN(C)C(=O)c1c(C(F)F)nn(C)c1Cl [Example 41],2.58
8,C=CCN(Cc1csc(C)n1)C(=O)c1c(C(F)F)nn(C)c1Cl [Example 43],2.20
9,C=CCN(Cc1csc(C)n1)C(=O)c1c(C(F)F)nn(C)c1F [Example 44],2.07
10,CCN(Cc1cn(CC)nc1C)C(=O)c1c(C(F)F)nn(C)c1F [Example 45],1.69
11,CCN(Cc1cn(CC)nc1C)C(=O)c1c(C(F)F)nn(C)c1Cl [Example 46],1.79
12,CCn1cc(CNC(=O)c2c(C(F)F)nn(C)c2F)c(C)n1 [Example 47],1.31
13,CN(Cc1cccnc1Cl)C(=O)c1c(C(F)F)nn(C)c1Cl [Example 51],1.87
14,CN(Cc1cccnc1Cl)C(=O)c1c(C(F)F)nn(C)c1F [Example 52],1.72
15,CN(Cc1ccnc(Cl)c1)C(=O)c1c(C(F)F)nn(C)c1Cl [Example 53],1.91
16,CN(Cc1ccnc(Cl)c1)C(=O)c1c(C(F)F)nn(C)c1F [Example 54],1.76
17,CN(Cc1cncc(Cl)c1)C(=O)c1c(C(F)F)nn(C)c1Cl [Example 55],1.90
18,CN(Cc1cncc(Cl)c1)C(=O)c1c(C(F)F)nn(C)c1F [Example 56],1.76
19,Cn1nc(C(F)F)c(C(=O)N(Cc2ccc(Cl)nc2)C2CCCC2)c1F [Example 57],2.80
20,COCCN(Cc1ccc(Cl)nc1)C(=O)c1c(C(F)F)nn(C)c1Cl [Example 58],2.15
21,COCCN(Cc1ccc(Cl)nc1)C(=O)c1c(C(F)F)nn(C)c1F [Example 59],2.02
22,CCN(Cc1ccc(Cl)nc1)C(=O)c1c(C(F)F)nn(C)c1Cl [Example 60],2.23
23,CCN(Cc1ccc(Cl)nc1)C(=O)c1c(C(F)F)nn(C)c1F [Example 61],2.10
24,CN(Cc1ccc(Cl)nc1)C(=O)c1c(C(F)F)nn(C)c1Cl [Example 62],1.98
25,CN(Cc1ccc(Cl)nc1)C(=O)c1c(C(F)F)nn(C)c1F [Example 63],1.84
26,CC(C)N(Cc1ccc(Cl)nc1)C(=O)c1c(C(F)F)nn(C)c1Cl [Example 64],2.49
27,CC(C)N(Cc1ccc(Cl)nc1)C(=O)c1c(C(F)F)nn(C)c1F [Example 65],2.33

row,SMILES,logP
1,Cn1nc(C(F)F)c(C(=O)N(Cc2ccc(Cl)nc2)C2CC2)c1Cl [Example 66],2.39
2,Cn1nc(C(F)F)c(C(=O)N(Cc2ccc(Cl)nc2)C2CCCC2)c1Cl [Example 68],2.94
3,Cn1nc(C(F)F)c(C(=O)NCc2ccc(Cl)nc2)c1Cl [Example 69],1.82
4,Cn1nc(C(F)F)c(C(=O)NC2(c3cc4ccccc4o3)CCCC2)c1Cl [Example 74],3.70
5,CCN(Cc1cnc(Cl)s1)C(=O)c1c(C(F)F)nn(C)c1F [Example 76],2.21
6,CCN(Cc1cnc(Cl)s1)C(=O)c1c(C(F)F)nn(C)c1Cl [Example 77],2.35
7,CCN(Cc1c(C)nn(CC)c1C)C(=O)c1c(C(F)F)nn(C)c1Cl [Example 78],1.82
8,CCN(Cc1c(C)nn(CC)c1C)C(=O)c1c(C(F)F)nn(C)c1F [Example 79],1.72
9,Cn1nc(C(F)F)c(C(=O)NCc2cc3ccccc3s2)c1F [Example 84],2.75
10,Cn1nc(C(F)F)c(C(=O)NCc2csc3ccccc23)c1Cl [Example 87],2.90
11,Cn1nc(C(F)F)c(C(=O)N(Cc2nc3ccccc3s2)C2CC2)c1Cl [Example 97],2.80
12,CN(Cc1ccc2nsnc2c1)C(=O)c1c(C(F)F)nn(C)c1Cl [Example 99],2.32
13,CC(C)Oc1ccc(CN(C)C(=O)c2c(C(F)F)nn(C)c2Cl)cn1 [Example 101],2.59
14,CN(Cc1nc(-c2ccccc2)no1)C(=O)c1c(C(F)F)nn(C)c1Cl [Example 113],2.71
15,Cn1nc(C(F)F)c(C(=O)N(Cc2cnc(Cl)cc2Cl)C2CC2)c1Cl [Example 119],2.90
16,Cc1onc(-c2ccccc2)c1CN(C)C(=O)c1c(C(F)F)nn(C)c1Cl [Example 129],2.59
17,Cc1onc(-c2ccccc2)c1CN(C)C(=O)c1c(C(F)F)nn(C)c1F [Example 130],2.44
18,CN(Cc1cscc1Br)C(=O)c1c(C(F)F)nn(C)c1Cl [Example 134],2.70
19,Cn1nc(C(F)F)c(C(=O)N(Cc2sccc2Br)C2CC2)c1F [Example 135],3.11
20,Cn1nc(C(F)F)c(C(=O)N(Cc2sccc2Br)C2CC2)c1Cl [Example 136],3.29
21,CN(Cc1sc2ccccc2c1Cl)C(=O)c1c(C(F)F)nn(C)c1Cl [Example 141],3.63
22,Cc1cc(CN(C(=O)c2c(C(F)F)nn(C)c2Cl)C2CC2)c(C)n1-c1ccccc1 [Example 146],3.94
23,Cc1nc(-c2ccccc2)sc1CN(C)C(=O)c1c(C(F)F)nn(C)c1Cl [Example 148],2.90
24,CC(C)N(Cc1cnn(-c2ccc(Cl)cc2)c1)C(=O)c1c(C(F)F)nn(C)c1F [Example 150],3.25
25,CN(Cc1cc(-c2ccc(Cl)cc2)no1)C(=O)c1c(C(F)F)nn(C)c1F [Example 152],3.04
26,CSc1ncc(C(C(C)C)N(C)C(=O)c2c(C(F)F)nn(C)c2Cl)c(C(F)(F)F)n1 (stereo not shown) [Example 158],3.59
